Assay: pH dependence of Piroxicam solubility
Format: physicochemical
Description: The solubility of weak acids and weak bases may be adjusted by pH control. Increasing the pH of a solution can decrease solubility of a weak base, whereas the solubility of a weak acid can be […] by a pH decrease. The relative levels of weak acid or weak base added to the drug can be calculated with the knowledge of the Henderson-Hasselbalch equation, and by calculation of the pKa of the drug concerned in the solvent in question. […] Piroxicam ([…]) has a “U”-shaped pH solubility curve with a minimum around pH 3.5. […] A further advantage arising out of the reduced solubility of Piroxicam is reduced formation of the hydrate which has a bright yellow color.

pH of minimum of the U-shaped pH solubility curve: ~3.5
Compound: CN1C(C(=O)Nc2ccccn2)=C(O)c2ccccc2S1(=O)=O [Piroxicam]
change in solubility on pH adjustment (pH adjusted from about 6.5 to approximately 4.0 by addition of an acid such as citric acid): approximately tenfold decrease in solubility

Source: patent US6726928B2, “Process for preparing solid dosage forms for unpalatable pharmaceuticals” (R.P. Scherer Technologies, Inc., priority 1994, dated 2004)
